Measured values published in patent publication US20260215432A1, “ANTIMICROBIAL CONJUGATED OLIGOELECTROLYTES AND METHODS THEREOF” (National University of Singapore, priority 2023, published 2026).

Columns and labels:
[1] = tested on: Staphylococcus pseudintermedius; test: Mouse wound infection model, S. pseudintermedius; type: in vivo, mice; conditions: for average CFU: S. pseudintermedius mouse wound
From the text: Staphylococcus pseudintermedius (SP) is particularly pathogenic towards dogs, with skin infections such as pyoderma being characterized by a lengthy treatment period and high treatment failure due to antimicrobial resistance. Here, we show high in vivo antimicrobial efficacy of compounds of FIG. 11 in a mouse wound infection model, featuring over a 3-log reduction in bacterial load at low concentrations. The grouping tested with saline has an average CFU of 5.16×10^8 CFU/g. The grouping tested with DM6P (0.1 mg/kg) has an average CFU of 1.62×10^7 CFU/g. The grouping tested with DM6P (0.25 mg/kg) has an average CFU of 5.51×10^5 CFU/g.
For testing against Staphylococcus pseudintermedius, C57BL/6[SPF] mice (female, 18-20 g) were first acclimated, weighed and grouped based on body weight into 3 groups. Mice were anaesthetized and the hair at the back will be shaved and removed. A 6 mm-diameter excisional wound was created on the back of each mouse, and log-phase Staphylococcus pseudintermedius (Sp strain) (in 5 μL PBS) will be inoculated onto the wound. A 3M tegaderm will be used to cover the wound site from contamination. 2 h post infection, the groups were tested with saline, DM6P (0.1 mg/kg) and DM6P (0.25 mg/kg) respectively, by adding directly to wound site. At 12 h and 24 h post infection, sampling and colony enumeration were conducted. At 24 h post infection, all mice were sacrificed and the wound tissue harvested into 1 mL PBS.

[2] = tested on: P. aeruginosa (ATCC47085); test: MIC, broth microdilution in CA-MHB; type: cell-based
Method: (§1) Antimicrobial activity was screened against a range of pathogens made up of clinically relevant ESKAPE pathogens by determination of the minimum inhibitory concentration (MIC) in cation-adjusted Mueller-Hinton broth (CA-MHB).
(§2) Minimum inhibitory concentrations of COEs were determined through a broth microdilution method in accordance with the Clinical and Laboratory Standards Institute (CLSI) guidelines M07-A10. A single bacterial colony was isolated from an overnight culture and grown to mid-log phase (OD600~0.8). Compounds were prepared as a stock solution in DMSO and diluted in a sterile flat-bottom 96-well plate in CA-MHB. Subsequent concentrations were prepared by two-fold dilution of the initial solution. An equivalent volume of bacteria was added to the compound to a final concentration of 5×10^5 cfu/mL. Plates were incubated at 37° C. for 16-18 hours, and read at OD600 using a microplate reader (TECAN Spark®). […] MIC values were determined for each compound in triplicate.

[3] = tested on: Methicillin-resistant S. aureus (ATCC BAA1717); test: MIC, broth microdilution in CA-MHB; type: cell-based
Method: as §1, §2

E. facium (ATCC 19434) = test: MIC, broth microdilution in CA-MHB; type: cell-based; conditions: CA-MHB
Method: as §1, §2

S. aureus (ATCC 29213) = test: MIC, broth microdilution in CA-MHB; type: cell-based
Method: as §1, §2

[4] = tested on: E. faecalis OG1RF (ATCC 47077); test: MIC, broth microdilution in CA-MHB; type: cell-based
Method: as §1, §2

[5] = tested on: K. pneumoniae (carbapenem-resistant Enterobacterales) (ATCC BAA1705); test: MIC, broth microdilution in CA-MHB; type: cell-based
Method: as §1, §2

MRSA = test: Membrane depolarization assay (DiSC3(5)); type: cell-based, S. aureus; conditions: DiSC3(5)-encapsulated MRSA cells
From the text: The interactions of DM6P with various bacterial cell membranes were first investigated through spectrometric methods. In normal cells, compartmentalization of the intracellular space by the lipid bilayer enables the maintenance of a transmembrane potential, which is necessary for regular cell division and energy production. The membrane-potential sensitive dye 3,3′-dipropylthiadicarbocyanine iodide (DiSC3(5)) accumulates within the membranes of healthy, polarized cells where its fluorescence is self-quenched. Depolarization of the membrane necessary to maintain this gradient causes the release of this dye, resulting in an increase in fluorescence intensity. […]
Determination of the extent of depolarization of bacterial cell membranes was carried out using a voltage sensitive dye DiSC3(5) (ThermoFisher, USA). The dye is able to accumulate within polarized healthy cell membranes with resulting quenched fluorescence. When the membrane is depolarized, subsequent ion permeabilization releases the dye from the membrane and gives rise to enhanced fluorescence intensity.^3 The assay was performed according to a modified protocol reported previously. […] The plate was incubated in the dark for 30 minutes, with the signal measured every 5 minutes until a stable baseline was observed. COEs were then added at varying concentrations and the fluorescence intensity was measured over time at 37° C. […]

[6] = tested on: methicillin-resistant Staphylococcus aureus (ATCC BAA-1717); test: Time-kill kinetics; type: cell-based; conditions: MRSA, within the first two hours, concentrations above the MBC value of 4 μg mL^−1
Method: (§3) Separately, MRSA and P. aeruginosa cultures were challenged with DM6P at varying concentrations and aliquots were taken at specific intervals to quantify the bacteria remaining.
(§4) The time-kill kinetics was determined against Pseudomonas aeruginosa (PAO1, ATCC 47085) and methicillin-resistant Staphylococcus aureus (ATCC BAA-1717). Bacteria tested were subcultured in Cation-Adjusted Mueller Hinton II Broth (CAMHB, BD Biosciences) from overnight cultures to mid-log phase at 37° C. with shaking at 200 rpm and diluted to an OD600 value of 0.2 and aliquoted into 2 mL fractions in culture tubes. The resulting bacterial suspension was then challenged with DM6P at varying concentrations and incubated at 37° C. with shaking at 200 rpm. At regular intervals, 100 μL aliquots of each sample were diluted with 10-fold dilution in PBS and plated on TSB agar plates with 100 μL inoculation. The colonies were incubated at 37° C. overnight and counted to determine the cfu/mL of each sample. Experiments were performed in triplicate.

[7] = tested on: Pseudomonas aeruginosa (PAO1, ATCC 47085); test: Time-kill kinetics; type: cell-based; conditions: P. aeruginosa, treatment at or above the MBC
Method: as §3, §4

**Q.** Which results are given for `COc1cc(/C=C/c2ccc(OCCCCCC[P+](c3ccccc3)(c3ccccc3)c3ccccc3)c(OC)c2)ccc1OCCCCCC[P+](c1ccccc1)(c1ccccc1)c1ccccc1.[I-].[I-]` [DM6P]?
**A.** average CFU ([1]; 0.1 mg/kg): 1.62×10^7 CFU/g; average CFU ([1]; 0.25 mg/kg): 5.51×10^5 CFU/g; tolerability (side effects) ([1]; mice, following compound administration): did not show any negative side effects; MIC PA ([2]; CA-MHB): 4 mg/L; MIC ([2]; strain PA, Table 5): 4 mg/L; MIC MRSA ([3]; CA-MHB): 1 mg/L; MIC ([3]; strain MRSA, Table 5): 1 mg/L; MIC ([3]; towards MRSA, Table 3): 1 mg/L; MIC FAC (E. facium (ATCC 19434)): 1 mg/L; MIC SA (S. aureus (ATCC 29213)): 1 mg/L; MIC FAE ([4]; CA-MHB): 1 mg/L; MIC ([4]; strain EF, Table 5): 1 mg/L; MIC KP ([5]; CA-MHB): 8 mg/L; MIC ([5]; strain CRKP, Table 5): 8 mg/L; depolarization of the bacterial membrane (MRSA): dose-dependent depolarization; bacteria remaining (nearly complete killing) [6]: < 100 cfu mL^−1; killing at or above the MBC value [7]: eradication of the cells
